These results are taken from publication PMC8160813, “Design, Synthesis, and Evaluation of Dihydropyranopyrazole Derivatives as Novel PDE2 Inhibitors for the Treatment of Alzheimer’s Disease” (Molecules, 2021).

Each structure is given as a SMILES string.

For the experiment, the target named is T1, PDE2A (catalytic domain, 580–919) (Homo sapiens, UniProt O00408).
T1 construct: made in house; host or cells: E. coli BL21 (CodonPlus)
Description: In vitro PDE2 enzymatic inhibition assay (3H-cGMP substrate). Format: biochemical. Particulars: for inhibition at 0.5 µM: read-out: Inhibition Ratio (%) 0.5 μM; for inhibition at 0.1 µM: compound at 0.1 μM, read-out: Inhibition Ratio (%) 0.1 μM; for IC50: means ± SD of three experiments, 3H-cGMP, 25 °C, 15 min, read-out: IC50 (nM) against PDE2. How it is done: Purification and expression of the recombinant pET15b-PDE2A plasmid (catalytic domain, 580–919) was performed following our previously reported method. The plasmid pET15b-PDE2A (catalytic domain, 580–919) was transferred to thawed competent E. coli BL21 cells (CodonPlus, Agilent Technologies, Santa Clara, CA, USA), which were grown in 2XYT medium with 100 μg/mL ampicillin and 20 μg/mL chloramphenicol at 37 °C until OD600 = 0.6–0.8. Then, 0.1 mM isopropylthiogalactoside was added for induction, and protein expression was induced by continuing to grow the cells at 16 °C for 24 h. After that, bacteria were collected by centrifugation and frozen overnight at −20 °C. The bacteria containing the recombinant plasmid of the target protein were subjected to cell disruption and passed through a Ni-NTA agarose affinity column, Q-Sepharose ion-exchange column and other steps. The purity can be 95% or more, and a typical purification batch produces 10–20 mg of PDE2A protein from 1.0 L of cell culture.
Using the appropriate concentration of ^3H-cGMP as the substrate, different compound solutions were added to the test group, DMSO was added to the negative control and blank control groups, and EHNA was added to the positive control group, followed by protein solution (the proteins were all diluted with Assay Buffer); Assay Buffer was added to the blank group. The enzymatic reaction was performed at room temperature (25 °C) for 15 min, and then, 0.2 M ZnSO4 was added to inactivate PDE2 and to stop the reaction. Then, 0.2 N Ba(OH)2 solution was added to precipitate the reaction product, and unreacted ^3H-cGMP remained in the supernatant. After mixing the system, it was centrifuged. The radioactivity of the supernatant was measured with a liquid scintillation counter, and the inhibitory activity of the compound against PDE2 was calculated. The above test was repeated three times (the IC50 test generally used 9 concentrations, and the single-point test was directly diluted with DMSO to the required concentration).

As a reminder, the IC50 is the concentration at which inhibition is half-maximal.

T1 sequence (O00408 580-919): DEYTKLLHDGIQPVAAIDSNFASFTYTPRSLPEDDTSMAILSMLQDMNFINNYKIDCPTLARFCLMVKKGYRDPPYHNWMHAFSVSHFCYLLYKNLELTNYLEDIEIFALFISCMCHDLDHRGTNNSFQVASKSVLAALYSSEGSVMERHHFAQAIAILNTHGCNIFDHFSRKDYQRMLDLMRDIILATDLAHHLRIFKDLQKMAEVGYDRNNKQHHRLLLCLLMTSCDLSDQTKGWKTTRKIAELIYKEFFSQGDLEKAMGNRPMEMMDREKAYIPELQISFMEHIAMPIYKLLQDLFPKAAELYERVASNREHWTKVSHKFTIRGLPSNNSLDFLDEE

`Cc1n[nH]c2c1C(c1cc(OC(F)(F)F)ccc1OCc1ccc(C(F)(F)F)cc1)C(C#N)=C(N)O2` (stereo not drawn) [Compound 11p, 6-Amino-3-methyl-4-(5-(trifluoromethoxy)-2-((4-(trifluoromethyl)benzyl)oxy)phenyl)-1,4-dihydropyrano[2,3-c]pyrazole-5-carbonitrile]: the inhibition at 0.5 µM (PDE2, compound at 0.5 μM) came out at 17.4%.
On the same count and under the same terms, next, `COc1ccc(OC(=O)c2ccc(OC(F)(F)F)cc2)c(C2C(C#N)=C(N)Oc3[nH]nc(C)c32)c1` (stereo not drawn) [Compound 8a, 2-(6-Amino-5-cyano-3-methyl-1,4-dihydropyrano[2,3-c]pyrazol-4-yl)-4-methoxyphenyl-4-(trifluoromethoxy)benzoate]: 13.4%; `Cc1n[nH]c2c1C(c1cc(OC(F)F)ccc1OCc1ccc(C(F)(F)F)cc1)C(C#N)=C(N)O2` (stereo not drawn) [Compound 11q, 6-Amino-4-(5-(difluoromethoxy)-2-((4-(trifluoromethyl)benzyl)oxy)phenyl)-3-methyl-1,4-dihydropyrano[2,3-c]pyrazole-5-carbonitrile]: 6.6%; `Cc1n[nH]c2c1C(c1cc(OCc3ccc(C(F)(F)F)cc3)ccc1OCc1ccc(C(F)(F)F)cc1)C(C#N)=C(N)O2` (stereo not drawn) [Compound 11l, 6-Amino-4-(2,5-bis((4-(trifluoromethyl)benzyl)oxy)phenyl)-3-methyl-1,4-dihydropyrano[2,3-c]pyrazole-5-carbonitrile]: 13.4%.
As for `COc1ccc(OCc2ccc(C(F)(F)F)cc2)c(C2C(C#N)=C(N)Oc3[nH]ncc32)c1` (stereo not drawn) [Compound 11r, 6-Amino-4-(5-methoxy-2-((4-(trifluoromethyl)benzyl)oxy)phenyl)-1,4-dihydropyrano[2,3-c]pyrazole-5-carbonitrile], the IC50 was found to be 445.3 ± 3.4 nM. Moreover, the inhibition at 0.1 µM (PDE2) worked out at 22.7%. The inhibition at 0.5 µM (PDE2, compound at 0.5 μM) was found to be 60.5%.
On to `COc1ccc(OC(=O)CCCc2ccc(Cl)cc2)c(C2C(C#N)=C(N)Oc3[nH]nc(C)c32)c1` (stereo not drawn) [Compound 8d, 2-(6-Amino-5-cyano-3-methyl-1,4-dihydropyrano[2,3-c]pyrazol-4-yl)-4-methoxyphenyl-4-(4-chlorophenyl)butanoate], for which the inhibition at 0.5 µM (PDE2, compound at 0.5 μM) was 6.12%.
Turning to `COc1ccc(OCc2ccc(OC(F)(F)F)cc2)c(C2C(C#N)=C(N)Oc3[nH]nc(C)c32)c1` (stereo not drawn) [Compound 11i, 6-Amino-4-(5-methoxy-2-((4-(trifluoromethoxy)benzyl)oxy)phenyl)-3-methyl-1,4-dihydropyrano[2,3-c]pyrazole-5-carbonitrile], the inhibition at 0.5 µM (PDE2, compound at 0.5 μM) was found to be 48.8%.
Turning to `COc1ccc(OCc2ccc(Cl)cc2)c(C2C(C#N)=C(N)Oc3[nH]nc(C)c32)c1` (stereo not drawn) [Compound 11f, 6-Amino-4-(2-((4-chlorobenzyl)oxy)-5-methoxyphenyl)-3-methyl-1,4-dihydropyrano[2,3-c]pyrazole-5-carbonitrile], the IC50 is 115 ± 1.3 nM. Also, the inhibition at 0.1 µM (PDE2) is 48.1%. Besides, where the note is “PDE2, compound at 0.5 μM”, the inhibition at 0.5 µM is 79.2%.
On to `COc1ccc(OCc2ccc(F)cc2)c(C2C(C#N)=C(N)Oc3[nH]nc(C)c32)c1` (stereo not drawn) [Compound 11g, 6-Amino-4-(2-((4-fluorobenzyl)oxy)-5-methoxyphenyl)-3-methyl-1,4-dihydropyrano[2,3-c]pyrazole-5-carbonitrile], for which the IC50 is 807 ± 15.3 nM. Besides, the inhibition at 0.1 µM (PDE2) was found to be 15.1%. In addition, where the note is “PDE2, compound at 0.5 μM”, the inhibition at 0.5 µM is 44.4%.
Take `COc1cc(OCc2ccc(Cl)cc2)cc(C2C(C#N)=C(N)Oc3[nH]nc(C)c32)c1` (stereo not drawn) [Compound 4c, 6-Amino-4-(3-((4-chlorobenzyl)oxy)-5-methoxyphenyl)-3-methyl-1,4-dihydropyrano[2,3-c]pyrazole-5-carbonitrile]: for the setting “PDE2, compound at 0.5 μM”, the inhibition at 0.5 µM is 43.4%.
On to `COc1ccc(OCc2ccc(C(F)(F)F)cc2)c(C2C(C#N)=C(N)Oc3[nH]nc(-c4ccccc4)c32)c1` (stereo not drawn) [Compound 11s, 6-Amino-4-(5-methoxy-2-((4-(trifluoromethyl)benzyl)oxy)phenyl)-3-phenyl-1,4-dihydropyrano[2,3-c]pyrazole-5-carbonitrile], for which the IC50 turned out to be 154 ± 6.2 nM. Also, the inhibition at 0.1 µM (PDE2) stood at 46.3%. Moreover, the inhibition at 0.5 µM (PDE2, compound at 0.5 μM) worked out at 75.3%.
In the case of `COc1ccc(C2C(C#N)=C(N)Oc3[nH]nc(C)c32)c(OCc2ccc(Cl)cc2)c1` (stereo not drawn) [Compound 11c, 6-Amino-4-(2-((4-chlorobenzyl)oxy)-4-methoxyphenyl)-3-methyl-1,4-dihydropyrano[2,3-c]pyrazole-5-carbonitrile], under “PDE2, compound at 0.5 μM”, the inhibition at 0.5 µM stood at 29%.
In the case of `Cc1n[nH]c2c1C(c1cc(C(C)(C)C)ccc1OCc1ccc(C(F)(F)F)cc1)C(C#N)=C(N)O2` (stereo not drawn) [Compound 11j, 6-Amino-4-(5-(tert-butyl)-2-((4-(trifluoromethyl)benzyl)oxy)phenyl)-3-methyl-1,4-dihydropyrano[2,3-c]pyrazole-5-carbonitrile], where the note is “PDE2, compound at 0.5 μM”, the “Inhibition Ratio (%) 0.5 μM” value is reported as “no inhibition” and the inhibition at 0.5 µM was determined as 0%.
Turning to `COc1ccc(OCc2ccc(C(F)(F)F)cc2)c(C2C(C#N)=C(N)Oc3[nH]nc(C)c32)c1` (racemic) [Compound 11h, 6-Amino-4-(5-methoxy-2-((4-(trifluoromethyl)benzyl)oxy)phenyl)-3-methyl-1,4-dihydropyrano[2,3-c]pyrazole-5-carbonitrile], the IC50 stood at 75.5 ± 2 nM. Moreover, under “PDE2”, the inhibition at 0.1 µM is 63.3%. For the same compound, the inhibition at 0.5 µM (PDE2, compound at 0.5 μM) turned out to be 87.3%.
On to `COc1ccc(COc2ccc(OC)cc2C2C(C#N)=C(N)Oc3[nH]nc(C)c32)cc1` (stereo not drawn) [Compound 11e, 6-Amino-4-(5-methoxy-2-((4-methoxybenzyl)oxy)phenyl)-3-methyl-1,4-dihydropyrano[2,3-c]pyrazole-5-carbonitrile], for which the IC50 was determined as 458 ± 16.2 nM. Further, the inhibition at 0.1 µM (PDE2) turned out to be 17.5%. Besides, the inhibition at 0.5 µM (PDE2, compound at 0.5 μM) is 48%.
For the compound `COc1ccc(OC(=O)CCc2ccc(Cl)cc2)c(C2C(C#N)=C(N)Oc3[nH]nc(C)c32)c1` (stereo not drawn) [Compound 8c, 2-(6-Amino-5-cyano-3-methyl-1,4-dihydropyrano[2,3-c]pyrazol-4-yl)-4-methoxyphenyl-3-(4-chlorophenyl)propanoate], the inhibition at 0.5 µM (PDE2, compound at 0.5 μM) stood at 4.12%.
Still for that read-out and setting: in the case of `COc1ccc(C2C(C#N)=C(N)Oc3[nH]nc(C)c32)c(OCc2ccccc2)c1` (stereo not drawn) [Compound 11b, 6-Amino-4-(2-(benzyloxy)-4-methoxyphenyl)-3-methyl-1,4-dihydropyrano [2,3-c] pyrazole-5-carbonitrile] it was 14.3%.
Still for that read-out and setting: in the case of `COc1cc(C2C(C#N)=C(N)Oc3[nH]nc(C)c32)c(OCc2ccc(C(F)(F)F)cc2)cc1Cl` (stereo not drawn) [Compound 11t, 6-Amino-4-(4-chloro-5-methoxy-2-((4-(trifluoromethyl)benzyl)oxy)phenyl)-3-methyl-1,4-dihydropyrano[2,3-c]pyrazole-5-carbonitrile] it was 10.3%.
As to `COc1ccc(OC(=O)c2ccc(C(F)(F)F)cc2)c(C2C(C#N)=C(N)Oc3[nH]nc(C)c32)c1` (stereo not drawn) [Compound 8b, 2-(6-Amino-5-cyano-3-methyl-1,4-dihydropyrano[2,3-c]pyrazol-4-yl)-4-methoxyphenyl-4-(trifluoromethyl)benzoate], the inhibition at 0.5 µM (PDE2, compound at 0.5 μM) turned out to be 39.1%.
Regarding `COc1ccc(OCc2ccccc2)c(C2C(C#N)=C(N)Oc3[nH]nc(C)c32)c1` (stereo not drawn) [Compound 11d, 6-Amino-4-(2-(benzyloxy)-5-methoxyphenyl)-3-methyl-1,4-dihydropyrano [2,3-c] pyrazole-5-carbonitrile], the inhibition at 0.5 µM (PDE2, compound at 0.5 μM) is 17.7%.
